According to patent US20090005326A1, “SINGLE DOSE ROXITHROMYCIN” (priority 2007, published 2009):
Like-named read-outs stand apart in the source and are kept apart here.

Key:
[1] = in humans; cited from earlier work
[2] = literature; cited from earlier work
[3] = cat, single oral dose 20 mg/kg, capsule of powdered roxithromycin
[4] = test system: Bacillus subtilis; assay: MIC, single disc method; type: cell-based
Protocol: (§1) Typically, to be effective, the minimum inhibitory concentration of the roxithromycin against a specific bacteria should be less than 10 μg/mL, preferably less than 5 μg/mL, more preferably less than 2 μg/mL, even more preferably less than 1 μg/mL, and most preferably less than 0.5 μg/mL. The activity of roxithromycin against a bacteria can be determined using standard dilution tests. For example, the minimum inhibitory concentrations can be determined using the disk diffusion susceptibility testing method described in Clinical Microbiology Procedures Handbook, volume 1, edited by Henry D. Isenberg, American Society for Microbiology, 1992, section 5.1 or the well known method of Bauer et al. “Antibiotic Susceptibility Testing by a Standardized Single Disc Method,” Amer. J. Clin. Pathol., 45, p. 493-496.
(§2) FIG. 1 provides a graphical representation of the average plasma serum concentration of roxithromycin as a function of time for the 5 cats that were administered a single dose of roxithromycin by subcutaneous injection at a dose of 10 mg/kg as a formulation containing 200 mg/mL of roxithromycin in 10% propylene glycol in glycerol formal. […] J. Clin. Pathol., 45, p. 493-496.

[5] = test system: Pasteurella multocida; assay: MIC, single disc method; type: cell-based
Protocol: as §1, §2

[6] = test system: Clostridium perfringes; assay: MIC, single disc method; type: cell-based
Protocol: as §1, §2

[7] = test system: Streptococcus pyogenes; assay: MIC, single disc method; type: cell-based
Protocol: as §1, §2

[8] = test system: Streptococcus pneumoniae; assay: MIC, single disc method; type: cell-based
Protocol: as §1, §2

[9] = test system: Staphylococcus aureus; assay: MIC, single disc method; type: cell-based
Protocol: as §1, §2

[10] = test system: Enterococcus faecalis; assay: MIC, single disc method; type: cell-based
Protocol: as §1, §2

[11] = test system: Escherichia coli; assay: MIC, single disc method; type: cell-based
Protocol: as §1, §2

[12] = Serum concentration after single subcutaneous injection to cats; type: in vivo; settings: cat, single subcutaneous injection 10 mg/kg, 200 mg/mL in 10% propylene glycol in glycerol formal
Protocol: Five cats (mixed breed of various sizes, males and female, approximately 4 kg) were administered 10 mg/kg of a roxithromycin composition by subcutaneous injection between the shoulder blades. The roxithromycin composition was prepared by weighing 5.128 g of roxithromycin (purity 97.5%) into a 25 mL volumetric flask, adding 2.5 mL of propylene glycol, and filling to volume with stabilized glycerol formal.
Cats were kept in a stainless steel, suspended, wire bottom cage, at least 3′×3′, provided with a litter box in an environmentally controlled room (22±3° C., a relative humidity of 30-80%, a 12 hour light/dark schedule, and room ventilation of approximately 10-12 air changes per hour.) Tap water was available ad libitum and the cats were fed PMI Feline Lab Diet #5003 or other commercial product.
Blood samples were collected on Day-1 and approximately 1 mL of whole blood was collected at 1, 8, 24, 36, 48, 60, and 72 hr following dosing and twice-daily thereafter through study termination on day 10. […] The dose site was monitored daily during the study.
The serum was analyzed by high pressure liquid chromatograph (“HPLC”) using the following procedure: […]
The serum concentration of roxithromycin was then determined by comparing the area under the curve for the HPLC peak corresponding to roxithromycin to a standard curve of peak areas v. known concentrations of roxithromycin in serum. […]

[13] = Elimination T1/2 of roxithromycin in a cat; type: in vivo; settings: administered to a cat; route and dose not stated
Protocol: The phrase “elimination half life” or “T1/2,” as used herein, has the conventional meaning used in pharmacokinetics, i.e., the time taken for the maximum plasma concentration (Cmax) of a drug to reduce by 50%.
Therefore, the rate of clearance of roxithromycin from a cat, i.e., as measured by the T1/2, is much slower than when roxithromycin is administered to, for example, a human. The unexpectedly slow rate of clearance (long T1/2) allows bacterial infections in cats to be advantageously treated with a single administration of roxithromycin administered either orally or by injection. Treating a bacterial infection using a single dose of roxithromycin is simpler, more cost effective, and results in better patient compliance. Furthermore, single dose administration of roxithromycin is believed to reduce the risk of microbial strains emerging that are resistant to roxithromycin. Single dose administration of roxithromycin by injection is advantageous because administration by injection bypasses liver metabolism and the single administration precludes multiple visits to the veterinarian. Single dose administration orally, however, is less painful and can permit administration without requiring a visit to the veterinarian.

Substance: roxithromycin
- half-life [1]: 10 to 12 h
- stability in acidic environments [2]: acid labile
- time for which serum concentration exceeds the MIC for several bacterial organisms [3]: at least 150 hours
- Minimum Inhibitory Concentration (MIC) [4]: 0.25 µg/mL
- Minimum Inhibitory Concentration (MIC) [5]: 1 µg/mL
- Minimum Inhibitory Concentration (MIC) [6]: 2 µg/mL
- Minimum Inhibitory Concentration (MIC) [7]: 0.25 µg/mL
- Minimum Inhibitory Concentration (MIC) [8]: 0.25 µg/mL
- Minimum Inhibitory Concentration (MIC) [9]: 0.25 µg/mL
- Minimum Inhibitory Concentration (MIC) [10]: 8 µg/mL
- Minimum Inhibitory Concentration (MIC) [11]: 32 µg/mL
- time for which serum concentration exceeds the MIC for several bacterial organisms [12]: more than 190 hours
- elimination T1/2 [13]: about 73.5 hours
